From the NIST ThermoML archive (doi:10.1016/j.tca.2012.08.011)

Test: xn = mol fraction of the nth substance listed
Conditions: 101 kPa, Liquid; for mass density: Vibrating tube method; for speed of sound: Linear variable-path acoustic interferometer

NC1CCCCC1 [cyclohexylamine] + c1ccccc1
Conditions	mass density, 308.15 K [kg/m3]	mass density, 313.15 K [kg/m3]	mass density, 318.15 K [kg/m3]	mass density, 323.15 K [kg/m3]	speed of sound, 313.15 K [m/s]	speed of sound, 318.15 K [m/s]	speed of sound, 323.15 K [m/s]
x1 = 0.0621	861.67	856.39	851.07	845.7	1235.4	1212.6	1190.1
x1 = 0.0938	861.08	855.84	850.53	845.26	1238.6	1215.7	1193.2
x1 = 0.1434	860.23	855.11	849.85	844.64	1243.5	1220.9	1198.3
x1 = 0.1546	860.04	854.94	849.69	844.5	1244.6	1221.9	1199.4
x1 = 0.2031	859.28	854.22	849.06	843.92	1249.7	1227.1	1204.6
x1 = 0.2475	858.65	853.65	848.53	843.45	1254.5	1232	1209.5
x1 = 0.2972	857.99	853.04	847.99	842.96	1260	1237.5	1215.1
x1 = 0.3472	857.38	852.51	847.44	842.52	1265.6	1243.2	1220.9
x1 = 0.3945	856.87	852.03	847.06	842.14	1270.9	1248.6	1226.2
x1 = 0.4786	856.07	851.24	846.39	841.55	1280.4	1258.2	1236.1
x1 = 0.4948	855.9	851.15	846.28	841.45	1282.3	1260	1237.9
x1 = 0.5013	855.87	851.07	846.24	841.42	1283	1260.8	1238.7
x1 = 0.5389	855.55	850.78	845.99	841.19	1287.3	1265.3	1243.1
x1 = 0.5396	855.55	850.78	845.99	841.19	1287.4	1265.4	1243.2
x1 = 0.5419	855.53	850.75	845.99	841.19	1287.7	1265.7	1243.5
x1 = 0.5927	855.17	850.43	845.7	840.94	1293.5	1271.5	1249.5
x1 = 0.6428	854.84	850.14	845.45	840.73	1299.4	1277.4	1255.5
x1 = 0.6927	854.58	849.92	845.29	840.66	1305.2	1283.3	1261.5
x1 = 0.7465	854.32	849.68	845.06	840.41	1311.7	1289.9	1268.1
x1 = 0.7962	854.16	849.53	844.93	840.3	1317.8	1295.8	1274.1
x1 = 0.8474	853.99	849.39	844.84	840.24	1324.1	1302.4	1280.6
x1 = 0.897	853.9	849.32	844.74	840.16	1330.5	1308.8	1287.1
x1 = 0.9485	853.83	849.27	844.71	840.16	1337.5	1315.9	1294.4
x1 = 1	853.76	849.23	844.68	840.14	1344.5	1323.1	1301.8
